According to US20120295907A1, “INSECTICIDAL COMPOUNDS” (SYNGENTA CROP PROTECTION, LLC, priority 2009, published 2012):

Experiments:
Format in all cases: in vivo
[1] = tested on: Heliothis virescens; assay: Heliothis virescens (Tobacco Budworm) egg test on artificial diet; conditions: 96 h, 200 ppm (concentration in well 18 ppm), eggs 0-24 h old on artificial diet, 4 days, egg mortality, larval mortality, growth regulation
[2] = tested on: Thrips tabaci; assay: Thrips tabaci (Onion Thrips) sunflower leaf disc spray test; conditions: foliar, 168 h, 200 ppm spray on sunflower leaf discs, population of mixed ages, 7 days, mortality
[3] = tested on: Diabrotica balteata; assay: Diabrotica balteata (Corn Root Worm) artificial diet MTP test; conditions: 120 h, 200 ppm (concentration in well 18 ppm), L2 larvae, 5 days, larval mortality, growth regulation
[4] = tested on: Tetranychus urticae; assay: Tetranychus urticae (Two-Spotted Spider Mite) bean leaf disc spray test; conditions: foliar, 192 h, 200 ppm spray on bean leaf discs, mite populations of mixed ages, 8 days, egg, larval and adult mortality, read-out: control of Tetranychus urticae
[5] = tested on: Spodoptera littoralis; assay: Spodoptera littoralis (Egyptian Cotton Leafworm) cotton leaf disc spray test; conditions: foliar, 72 h, 200 ppm spray on cotton leaf discs, L1 larvae, mortality, feeding behavior, growth regulation 3 DAT
[6] = tested on: Plutella xylostella; assay: Plutella xylostella (Diamond Back Moth) artificial diet MTP test; conditions: 144 h, 200 ppm (concentration in well 18 ppm), L2 larvae, 6 days, larval mortality, growth regulation

Measured: pest or weed control at 200 ppm

COc1c(NC(=O)c2c(Cl)cccc2[N+](=O)[O-])cccc1C(=O)Nc1c(Cl)cc(C(F)(C(F)(F)F)C(F)(F)C(F)(F)F)cc1Br (stereo not shown) [B101]
≥ 80%: all assays above

COc1c(NC(=O)c2ccc([N+](=O)[O-])cc2)cccc1C(=O)Nc1c(Cl)cc(C(F)(C(F)(F)F)C(F)(F)C(F)(F)F)cc1Cl (stereo not shown) [C7]
≥ 80%: all assays above

CCc1cc(C(F)(C(F)(F)F)C(F)(F)C(F)(F)F)cc(C)c1NC(=O)c1cccc(NC(=O)c2cccnc2F)c1OC (stereo not shown) [A7]
≥ 80%: all assays above

COc1c(NC(=O)c2c(F)cc(F)cc2F)cccc1C(=O)Nc1c(C)cc(C(F)(C(F)(F)F)C(F)(F)F)cc1C [K1]
≥ 80%: all assays above

COc1c(NC(=O)c2snnc2C)cccc1C(=O)Nc1c(Cl)cc(C(F)(C(F)(F)F)C(F)(F)F)cc1Cl [E20]
≥ 80%: all assays above

COc1c(NC(=O)c2ccc(F)cc2C)cccc1C(=O)Nc1c(Cl)cc(C(F)(C(F)(F)F)C(F)(F)F)cc1Cl [E7]
≥ 80%: all assays above

COc1c(NC(=O)c2ccc(Cl)cc2[N+](=O)[O-])cccc1C(=O)Nc1c(Cl)cc(C(F)(C(F)(F)F)C(F)(F)C(F)(F)F)cc1Br (stereo not shown) [B64]
≥ 80%: all assays above

COc1c(NC(=O)c2ccc(Cl)s2)cccc1C(=O)Nc1c(Cl)cc(C(F)(C(F)(F)F)C(F)(F)C(F)(F)F)cc1Br (stereo not shown) [B67]
≥ 80%: all assays above

CCc1cc(C(F)(C(F)(F)F)C(F)(F)C(F)(F)F)cc(C)c1NC(=O)c1cccc(NC(=O)c2ccc(C#N)cc2C)c1OC (stereo not shown) [A5, N-[2-ethyl-4-(1,2,2,3,3,3-hexafluoro-1-trifluoromethylpropyl)-6-methyl-phenyl]-3-(4-cyano-2-methylbenzoylamino)-2-methoxybenzamide]
not listed: [1]
≥ 80%: all other assays above

COc1c(NC(=O)c2cccc([N+](=O)[O-])c2Cl)cccc1C(=O)Nc1c(Cl)cc(C(F)(C(F)(F)F)C(F)(F)C(F)(F)F)cc1Br (stereo not shown) [B183]
≥ 80%: all assays above

COc1c(NC(=O)c2cccc(C#N)c2)cccc1C(=O)Nc1c(C)cc(C(F)(C(F)(F)F)C(F)(F)C(F)(F)F)cc1C (stereo not shown) [F21]
≥ 80%: all assays above

COc1c(NC(=O)c2sc(C)nc2C(F)(F)F)cccc1C(=O)Nc1c(Cl)cc(C(F)(C(F)(F)F)C(F)(F)C(F)(F)F)cc1Br (stereo not shown) [B134]
≥ 80%: all assays above

COc1c(NC(=O)c2ccc(F)cc2Cl)cccc1C(=O)Nc1c(Cl)cc(C(F)(C(F)(F)F)C(F)(F)F)cc1Cl [E19]
≥ 80%: all assays above

COc1c(NC(=O)c2cc(C)ccc2[N+](=O)[O-])cccc1C(=O)Nc1c(Cl)cc(C(F)(C(F)(F)F)C(F)(F)C(F)(F)F)cc1Br (stereo not shown) [B74]
≥ 80%: all assays above

COc1c(NC(=O)c2cccc(F)c2F)cccc1C(=O)Nc1c(Cl)cc(C(F)(C(F)(F)F)C(F)(F)C(F)(F)F)cc1Cl (stereo not shown) [C22]
≥ 80%: all assays above

COc1c(NC(=O)c2ccc([N+](=O)[O-])cc2)cccc1C(=O)Nc1c(C)cc(C(F)(C(F)(F)F)C(F)(F)C(F)(F)F)cc1C (stereo not shown) [F29]
≥ 80%: all assays above

COc1c(NC(=O)c2ccc(F)cc2F)cccc1C(=O)Nc1c(Cl)cc(C(F)(C(F)(F)F)C(F)(F)C(F)(F)F)cc1Cl (stereo not shown) [C23]
≥ 80%: all assays above

COc1c(NC(=O)c2cc(C(F)(F)F)nn2C)cccc1C(=O)Nc1c(Cl)cc(C(F)(C(F)(F)F)C(F)(F)C(F)(F)F)cc1Br (stereo not shown) [B113]
≥ 80%: all assays above

COc1c(NC(=O)c2cc(F)c(F)cc2Cl)cccc1C(=O)Nc1c(Cl)cc(C(F)(C(F)(F)F)C(F)(F)C(F)(F)F)cc1Br (stereo not shown) [B73]
≥ 80%: all assays above

COc1c(NC(=O)c2ccc([N+](=O)[O-])c(F)c2)cccc1C(=O)Nc1c(Cl)cc(C(F)(C(F)(F)F)C(F)(F)C(F)(F)F)cc1Br (stereo not shown) [B192]
≥ 80%: all assays above

COc1c(NC(=O)c2cc(F)ccc2Cl)cccc1C(=O)Nc1c(Cl)cc(C(F)(C(F)(F)F)C(F)(F)C(F)(F)F)cc1Br (stereo not shown) [B154]
not listed: [1]
≥ 80%: all other assays above
